According to paper PMC8567202, “Phosphoinositide-binding activity of Smad2 is essential for its function in TGF-β signaling” (The Journal of Biological Chemistry, 2021):

Assays:
Type in all cases: cell-based
[1] = test system: TβRI; assay: Dual color single-molecule tracking, TβRI and EGFP-PLCδ-PH; conditions: HeLa cells
[2] = test system: HeLa cells; assay: TIRF imaging of PM localization of EGFP-Smad2; conditions: HeLa cells, 10 ng/ml TGF-β, SB-431542 10 μM for 36 h where used
Procedure: (§1) Figure 4 Quantitative imaging analyses of spatiotemporal dynamics of Smad2.A, TIRF images of mouse EGFP-Smad2-WT transfected into HeLa cells whose endogenous Smad2 is suppressed by siRNA. Images were taken before and 5 min after TGF-β stimulation (10 ng/ml) with and without PI(4,5)P2 depletion. A pseudo-coloring scheme was used with orange and blue representing the highest and the lowest intensity, respectively. B, kinetics of TGF-β stimulated (10 ng/ml) PM localization of EGFP-Smad2-WT (blue), -K420A (green), and -W422A (orange) transfected into HeLa cells the endogenous Smad2 of which was suppressed by siRNA. For EGFP-Smad2-WT, the effect of PI(4,5)P2 depletion (black) and TβRI inhibition by SB-431542 (10 μM for 36 h) (red) were measured. Data points indicate average ±S.D. (n = 10 cells). C, spatially resolved PM PI(4,5)P2 concentration ([PI(4,5)P2]) profiles calculated from two-channel cross-sectional images of HeLa cells (before and 5 min after 10 ng/ml TGF-β stimulation and after PI(4,5)P2 depletion). Each cell is a representative of more than ten cells analyzed. Spatially averaged [PI(4,5)P2] values for each cell type are shown. […] E, time courses of the half-life of colocalization for SNAP-TMR-labeled TβRI and EGFP-Smad2 determined by dual color single-molecule tracking analysis. […] For EGFP-Smad2-WT, the effect of PI(4,5)P2 depletion (purple) was measured. […]

[3] = test system: HeLa cells; assay: Ratiometric PI(4,5)P2 imaging; conditions: 10 ng/ml TGF-β
Procedure: as §1

## EGFP-phospholipase Cδ-pleckstrin homology domain [EGFP-PLCδ-PH]
[1]; 10 ng/ml TGF-β, n = 10 cells
  time of maximal dwell time of TβRI-PLCδ-PH complex after TGF-β stimulation: 5 min
[1]; before and after TGF-β stimulation
  colocalization of TMR-SNAP-TβRI and EGFP-PLCδ-PH after PI(4,5)P2 depletion: eliminated colocalization

## NC(=O)c1ccc(-c2nc(-c3ccc4c(c3)OCO4)c(-c3ccccn3)[nH]2)cc1 [SB-431542, reference compound]
[2]
  PM residence / dissociation of Smad2: greatly elongated the PM residence of Smad2

## TGF-β: TGF-β1 was purchased from Millipore sigma (Cat no. T7039-2UG)
[3]
  effect on PM PI(4,5)P2 distribution and spatially averaged concentration: neither spatiotemporal distribution of PI(4,5)P2 nor the spatially averaged PI(4,5)P2 concentration was altered
